What follows are compounds tested against T1, rat cathepsin K (Rattus norvegicus, UniProt O35186) (assay: cathepsin K inhibition assay, fluorogenic substrate Cbz-Phe-Arg-AMC, progress curve method). Details: Table 2; rat recombinant enzyme, 10 μM substrate; read-out: rCat K Ki.
T1 construct: The proform of cathepsin K was converted to mature cathepsin K by brief exposure to pH 4; made in house; host or cells: baculovirus; Trichoplusia ni High Five cells (virus raised in Sf-9)
T1 sequence (O35186 115-329): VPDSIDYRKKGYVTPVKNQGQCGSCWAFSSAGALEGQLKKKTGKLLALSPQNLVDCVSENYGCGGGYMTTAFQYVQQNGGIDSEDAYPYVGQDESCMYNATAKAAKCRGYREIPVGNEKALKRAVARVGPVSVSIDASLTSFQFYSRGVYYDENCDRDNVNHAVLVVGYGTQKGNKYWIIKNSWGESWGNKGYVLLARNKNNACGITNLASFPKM
Assay type: biochemical
Protocol: All assays for cathepsin K were carried out with human and rat recombinant enzyme. Assays for cathepsins S & V were also carried out with human recombinant enzyme. Assays for human cathepsins B, H, and L were carried out with enzyme, purchased from Athens Research and Technology, Inc., prepared from human liver tissue. Standard assay conditions for the determination of kinetic constants used a fluorogenic peptide substrate, typically (5S,8S)-13-amino-5-benzyl-13-imino-3-methylene-N-(4-methyl-2-oxo-2H-chromen-7-yl)-6-oxo-1-phenyl-2-oxa-4,7,12-triazatridecane-8-carboxamide (Cbz-Phe-Arg-AMC), and were determined in 100 mM sodium acetate at pH 5.5 containing 10 mM dithiothreitol and 120 mM sodium chloride. A stock substrate solution of Cbz-Phe-Arg-AMC was prepared at a concentration of 50 mM in dimethyl sulfoxide. This substrate was diluted into the assay for a final substrate concentration of 10 μM in the rat cathepsin K, human cathepsin K, and human cathepsin B assays; a final substrate concentration of 5 μM in the human cathepsin L assay; and a final substrate concentration of 2 μM in the human cathepsin V assay.
All assays contained 10% dimethyl sulfoxide. […] All assays were conducted at 30° C. Product fluorescence (excitation at 360 nm; emission at 440 nm, (except cathepsin H which used excitation at 340 nm; emission at 420 nm)) was monitored with a PerSeptive Biosystems Cytofluor II fluorescence plate reader. Product progress curves were generated over 2.3 h monitoring the formation of 7-amino-4-methylcoumarin product (or β-naphthalamide for cathepsin H). […]
Protein Purification: Media (human and rat) were filtered through a Whatman 3 filter, and then loaded onto a 25 mL Poros HS II (26 mm×47 mm) cation exchange column equilibrated in 25 mM sodium acetate at pH 5.5 (equilibration buffer). The column was washed until the absorbance reached the baseline value, and then the protein was eluted with a linear gradient from 0-2 M sodium chloride in the equilibration buffer. Column fractions were analyzed by SDS-PAGE, N-terminal sequencing, and mass spectrometry. […]

| Ki [nM] | SMILES |
| --- | --- |
| > 1000 | CCCC[C@H](NC(=O)OC1(Cc2ccccc2)CCCC1)C(=O)C(=O)N[C@@H](C)C(=O)OCc1ccccc1 [Example 3, Benzyl (2S)-2-{[(3S)-3-({[(1-benzylcyclopentyl)oxy]carbonyl}amino)-2-oxoheptanoyl]amino}propanoate] |
| 10 to 100 | CCCC[C@H](NC(=O)OCC1(Cc2ccc(F)cc2)CCC1)C(=O)C(=O)Nc1n[nH]c2cc(Cl)ccc12 [Example 15, [1-(4-fluorobenzyl)cyclobutyl]methyl(1S)-1-[[(6-chloro-1H-indazol-3-yl)amino](oxo)acetyl]pentylcarbamate] |
| 10 to 100 | CCCC[C@H](NC(=O)OC1(c2nc3ccccc3s2)CCCC1)C(=O)C(=O)Nc1ccn[nH]1 [Example 17, 1-(1,3-Benzothiazol-2-yl)cyclopentyl(1S)-1-[oxo(1H-pyrazol-3-ylamino)acetyl]pentylcarbamate] |

Reference: US7282512B2, “Cycloalkyl ketoamides derivatives useful as cathepsin K inhibitors” (SmithKline Beecham Corporation, priority 2002, dated 2007)
